# Measured values taken from US8192962B2, “Processes for detecting toxic substances” (Daikin Industries, Ltd., priority 2001, dated 2012).
# System: Genes belonging to other category
# Assay: DNA chip mRNA expression in yeast, genes belonging to other category (Table 9)
# Type: cell-based, Saccharomyces cerevisiae S288C
# Outline: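 Value is the scanned fluorescence intensity ratio of exposed versus chemical-free cells. Log-phase S288C yeast in YPD at 25° C. received one toxic substance for two hours, dosed to slow growth without killing; Cy3/Cy5-labeled cDNA from oligo-dT-purified mRNA was hybridized to a whole-genome chip at 65° C.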
smiles,measurement,setting,value
"CCCCCCCCCCCCc1ccc(S(=O)(=O)[O-])cc1.[Na+] [(17), sodium dodecylbenzosulfonate]",The level of expressed mRNA in the presence of chemical substance/The level of expressed mRNA in the absence of chemical substance,yeast gene YAR010C,1.5
same,The level of expressed mRNA in the presence of chemical substance/The level of expressed mRNA in the absence of chemical substance,yeast gene YBL005W-A,1.3
same,The level of expressed mRNA in the presence of chemical substance/The level of expressed mRNA in the absence of chemical substance,yeast gene YBL041W,1.3
same,The level of expressed mRNA in the presence of chemical substance/The level of expressed mRNA in the absence of chemical substance,yeast gene YBL043W,2.3
same,The level of expressed mRNA in the presence of chemical substance/The level of expressed mRNA in the absence of chemical substance,yeast gene YBL078C,1.8
same,The level of expressed mRNA in the presence of chemical substance/The level of expressed mRNA in the absence of chemical substance,yeast gene YBR214W,1.1
same,The level of expressed mRNA in the presence of chemical substance/The level of expressed mRNA in the absence of chemical substance,yeast gene YCL020W,0.9
same,The level of expressed mRNA in the presence of chemical substance/The level of expressed mRNA in the absence of chemical substance,yeast gene YCL027W,0.7
same,The level of expressed mRNA in the presence of chemical substance/The level of expressed mRNA in the absence of chemical substance,yeast gene YCR004C,1.4
same,The level of expressed mRNA in the presence of chemical substance/The level of expressed mRNA in the absence of chemical substance,yeast gene YCR071C,1.2
same,The level of expressed mRNA in the presence of chemical substance/The level of expressed mRNA in the absence of chemical substance,yeast gene YCR088W,1.4
same,The level of expressed mRNA in the presence of chemical substance/The level of expressed mRNA in the absence of chemical substance,yeast gene YDL008W,1.5
same,The level of expressed mRNA in the presence of chemical substance/The level of expressed mRNA in the absence of chemical substance,yeast gene YDL238C,1.1
same,The level of expressed mRNA in the presence of chemical substance/The level of expressed mRNA in the absence of chemical substance,yeast gene YDR055W,2.0
same,The level of expressed mRNA in the presence of chemical substance/The level of expressed mRNA in the absence of chemical substance,yeast gene YDR084C,2.0
same,The level of expressed mRNA in the presence of chemical substance/The level of expressed mRNA in the absence of chemical substance,yeast gene YDR085C,1.3
same,The level of expressed mRNA in the presence of chemical substance/The level of expressed mRNA in the absence of chemical substance,yeast gene YDR104C,0.9
same,The level of expressed mRNA in the presence of chemical substance/The level of expressed mRNA in the absence of chemical substance,yeast gene YDR115W,1.2
same,The level of expressed mRNA in the presence of chemical substance/The level of expressed mRNA in the absence of chemical substance,yeast gene YDR259C,1.0
same,The level of expressed mRNA in the presence of chemical substance/The level of expressed mRNA in the absence of chemical substance,yeast gene YDR315C,1.2
same,The level of expressed mRNA in the presence of chemical substance/The level of expressed mRNA in the absence of chemical substance,yeast gene YDR358W,1.9
same,The level of expressed mRNA in the presence of chemical substance/The level of expressed mRNA in the absence of chemical substance,yeast gene YDR388W,1.2
same,The level of expressed mRNA in the presence of chemical substance/The level of expressed mRNA in the absence of chemical substance,yeast gene YDR432W,0.7
same,The level of expressed mRNA in the presence of chemical substance/The level of expressed mRNA in the absence of chemical substance,yeast gene YDR481C,1.2
same,The level of expressed mRNA in the presence of chemical substance/The level of expressed mRNA in the absence of chemical substance,yeast gene YDR510W,1.1
same,The level of expressed mRNA in the presence of chemical substance/The level of expressed mRNA in the absence of chemical substance,yeast gene YEL042W,0.7
same,The level of expressed mRNA in the presence of chemical substance/The level of expressed mRNA in the absence of chemical substance,yeast gene YEL066W,1.0
same,The level of expressed mRNA in the presence of chemical substance/The level of expressed mRNA in the absence of chemical substance,yeast gene YER039C,1.7
same,The level of expressed mRNA in the presence of chemical substance/The level of expressed mRNA in the absence of chemical substance,yeast gene YER107C,1.1
same,The level of expressed mRNA in the presence of chemical substance/The level of expressed mRNA in the absence of chemical substance,yeast gene YER130C,3.0
same,The level of expressed mRNA in the presence of chemical substance/The level of expressed mRNA in the absence of chemical substance,yeast gene YFL022C,0.9
same,The level of expressed mRNA in the presence of chemical substance/The level of expressed mRNA in the absence of chemical substance,yeast gene YFL028C,1.2
same,The level of expressed mRNA in the presence of chemical substance/The level of expressed mRNA in the absence of chemical substance,yeast gene YFL043C,1.5
same,The level of expressed mRNA in the presence of chemical substance/The level of expressed mRNA in the absence of chemical substance,yeast gene YGL158W,0.8
same,The level of expressed mRNA in the presence of chemical substance/The level of expressed mRNA in the absence of chemical substance,yeast gene YGL229C,1.1
same,The level of expressed mRNA in the presence of chemical substance/The level of expressed mRNA in the absence of chemical substance,yeast gene YGR136W,1.3
same,The level of expressed mRNA in the presence of chemical substance/The level of expressed mRNA in the absence of chemical substance,yeast gene YGR189C,2.3
same,The level of expressed mRNA in the presence of chemical substance/The level of expressed mRNA in the absence of chemical substance,yeast gene YGR213C,12.8
same,The level of expressed mRNA in the presence of chemical substance/The level of expressed mRNA in the absence of chemical substance,yeast gene YGR257C,1.1
same,The level of expressed mRNA in the presence of chemical substance/The level of expressed mRNA in the absence of chemical substance,yeast gene YHR004C,1.4
same,The level of expressed mRNA in the presence of chemical substance/The level of expressed mRNA in the absence of chemical substance,yeast gene YHR071W,2.6
same,The level of expressed mRNA in the presence of chemical substance/The level of expressed mRNA in the absence of chemical substance,yeast gene YHR139C,1.4
same,The level of expressed mRNA in the presence of chemical substance/The level of expressed mRNA in the absence of chemical substance,yeast gene YHR142W,1.3
same,The level of expressed mRNA in the presence of chemical substance/The level of expressed mRNA in the absence of chemical substance,yeast gene YIL123W,1.3
same,The level of expressed mRNA in the presence of chemical substance/The level of expressed mRNA in the absence of chemical substance,yeast gene YIL140W,0.7
same,The level of expressed mRNA in the presence of chemical substance/The level of expressed mRNA in the absence of chemical substance,yeast gene YJL073W,1.1
same,The level of expressed mRNA in the presence of chemical substance/The level of expressed mRNA in the absence of chemical substance,yeast gene YJL089W,1.2
same,The level of expressed mRNA in the presence of chemical substance/The level of expressed mRNA in the absence of chemical substance,yeast gene YJL116C,1.2
same,The level of expressed mRNA in the presence of chemical substance/The level of expressed mRNA in the absence of chemical substance,yeast gene YJR004C,0.4
same,The level of expressed mRNA in the presence of chemical substance/The level of expressed mRNA in the absence of chemical substance,yeast gene YJR086W,1.4
